Values quoted from earlier work in patent US20140187648A1, “Identifying Subjects in Need of Treatment” (HOWARD FOUNDATION HOLDINGS LTD., priority 2013, published 2014).

System: subjects who exhibit an abnormally low concentration of MP in the central portion of the retina

Row | Molecule | effect on MP (subjects with abnormally low MP in the central portion of the retina) | MP levels outside the central portion of the retina (subjects with abnormally low central MP) | MP levels in the central portion of the retina (subjects with abnormally low central MP, eccentricity 0.25° or less)
1 | CC1=C[C@H](O)CC(C)(C)[C@H]1/C=C/C(C)=C/C=C/C(C)=C/C=C/C=C(C)/C=C/C=C(C)/C=C/C1=C(C)C[C@@H](O)CC1(C)C [lutein, reference compound] | little effect |  | 
2 | meso-zeaxanthin [MZ] |  | little effect | return MP levels in the central portion of the retina substantially to normal
